Source: PMC2263054, “Functional evolution of the vitamin D and pregnane X receptors” (BMC Evolutionary Biology, 2007)
Where two headings read alike, the source gives them in different places.

Legend:
Human VDR = biological target: T1, Human VDR (Homo sapiens, UniProt P11473); assay: luciferase reporter transactivation assay in HepG2-NTCP cells, full-length hVDR with CYP3A4-PXRE-Luc; settings: for Human VDR relative efficacy: relative to maximal reference compound (1 μM calcitriol, efficacy = 1.0)
T1 sequence (P11473 1-427): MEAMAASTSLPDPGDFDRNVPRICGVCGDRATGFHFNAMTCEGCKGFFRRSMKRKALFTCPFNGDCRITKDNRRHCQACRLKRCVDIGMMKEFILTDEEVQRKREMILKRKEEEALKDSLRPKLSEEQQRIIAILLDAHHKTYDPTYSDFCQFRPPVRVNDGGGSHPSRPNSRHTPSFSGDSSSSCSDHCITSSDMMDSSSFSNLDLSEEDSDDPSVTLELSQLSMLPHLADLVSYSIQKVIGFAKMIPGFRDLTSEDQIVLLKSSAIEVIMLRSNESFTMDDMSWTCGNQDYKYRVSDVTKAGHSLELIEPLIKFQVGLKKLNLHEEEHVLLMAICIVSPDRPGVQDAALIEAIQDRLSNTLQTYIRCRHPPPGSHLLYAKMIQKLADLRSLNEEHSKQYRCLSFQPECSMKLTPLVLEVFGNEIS

Mouse VDR = biological target: T2, Mouse VDR (Mus musculus, UniProt P48281); assay: luciferase reporter transactivation assay in HepG2-NTCP cells, full-length mVDR with CYP3A4-PXRE-Luc
T2 sequence (P48281 1-422): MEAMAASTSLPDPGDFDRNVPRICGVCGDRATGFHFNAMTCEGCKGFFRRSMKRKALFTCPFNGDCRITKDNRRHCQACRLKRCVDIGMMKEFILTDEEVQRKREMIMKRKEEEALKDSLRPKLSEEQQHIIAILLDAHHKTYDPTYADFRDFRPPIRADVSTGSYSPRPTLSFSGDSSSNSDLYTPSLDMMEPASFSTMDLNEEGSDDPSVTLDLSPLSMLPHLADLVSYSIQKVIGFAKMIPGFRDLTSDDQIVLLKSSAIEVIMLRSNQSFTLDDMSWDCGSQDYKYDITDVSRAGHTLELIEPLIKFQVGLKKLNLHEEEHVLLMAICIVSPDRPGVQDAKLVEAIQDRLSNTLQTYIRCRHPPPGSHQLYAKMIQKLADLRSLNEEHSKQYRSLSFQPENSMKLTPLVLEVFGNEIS

Xenopus laevis VDR = biological target: T3, Xenopus laevis VDR (Xenopus laevis, UniProt O13124); assay: luciferase reporter transactivation assay in HepG2-NTCP cells, GAL4/xlVDR LBD chimera with tk-UAS-Luc; assay type: cell-based; settings: for EC50 / Xenopus VDR EC50 ± SD: HepG2-NTCP cells, luciferase reporter; for EC50: read-out: Xenopus VDR EC50 ± SD; for Xenopus VDR EC50 ± SD: unit not given, also cells saying No effect; for Effect on Xenopus laevis VDR: screening for activators, at least three concentrations of each drug; for Xenopus VDR relative efficacy: relative to maximal reference compound (1 μM calcitriol, efficacy = 1.0)
T3 sequence (O13124 90-422): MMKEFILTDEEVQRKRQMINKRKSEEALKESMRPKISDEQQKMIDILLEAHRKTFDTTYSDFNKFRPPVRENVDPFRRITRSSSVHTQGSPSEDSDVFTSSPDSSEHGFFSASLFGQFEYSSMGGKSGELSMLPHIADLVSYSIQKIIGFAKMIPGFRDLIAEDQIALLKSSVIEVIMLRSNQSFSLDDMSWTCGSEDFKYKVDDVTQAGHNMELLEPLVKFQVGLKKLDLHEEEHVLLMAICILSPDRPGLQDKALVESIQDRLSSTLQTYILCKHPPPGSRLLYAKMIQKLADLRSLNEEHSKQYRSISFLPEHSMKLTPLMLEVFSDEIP

Zebrafish VDR = biological target: T4, Zebrafish VDR (Danio rerio, UniProt Q9PTN2); assay: luciferase reporter transactivation assay in HepG2-NTCP cells, GAL4/zfVDR LBD chimera with tk-UAS-Luc; assay type: cell-based; settings: for EC50 / Zebrafish VDR EC50 ± SD: HepG2-NTCP cells, luciferase reporter; for EC50: read-out: Zebrafish VDR EC50 ± SD; for Zebrafish VDR EC50 ± SD: unit not given, also cells saying No effect; for Effect on zebrafish VDR: screening for activators, at least three concentrations of each drug; for Zebrafish VDR relative efficacy: relative to maximal reference compound (1 μM calcitriol, efficacy = 1.0)
T4 sequence (Q9PTN2 121-453): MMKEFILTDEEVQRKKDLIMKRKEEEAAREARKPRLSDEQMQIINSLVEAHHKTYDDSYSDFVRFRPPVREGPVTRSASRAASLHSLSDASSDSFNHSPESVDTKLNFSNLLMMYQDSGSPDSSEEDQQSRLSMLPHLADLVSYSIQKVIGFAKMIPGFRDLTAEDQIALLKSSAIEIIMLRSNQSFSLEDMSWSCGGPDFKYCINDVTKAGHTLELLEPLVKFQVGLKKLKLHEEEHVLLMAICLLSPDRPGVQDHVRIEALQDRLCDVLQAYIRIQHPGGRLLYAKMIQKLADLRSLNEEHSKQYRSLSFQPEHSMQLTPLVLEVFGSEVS

Sea lamprey VDR = biological target: T5, Sea lamprey VDR (Petromyzon marinus, UniProt Q7ZZY9); assay type: cell-based; settings: for Effect on sea lamprey VDR: screening for activators, at least three concentrations of each drug
T5 sequence (Q7ZZY9 92-406): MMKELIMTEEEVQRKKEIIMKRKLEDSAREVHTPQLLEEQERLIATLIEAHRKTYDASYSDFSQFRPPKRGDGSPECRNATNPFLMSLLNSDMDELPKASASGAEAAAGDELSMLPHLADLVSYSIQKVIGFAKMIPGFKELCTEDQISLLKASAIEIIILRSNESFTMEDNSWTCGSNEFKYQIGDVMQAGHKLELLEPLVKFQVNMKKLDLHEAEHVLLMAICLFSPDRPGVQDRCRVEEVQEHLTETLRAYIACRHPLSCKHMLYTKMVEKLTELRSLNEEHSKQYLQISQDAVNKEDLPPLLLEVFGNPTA

[1] = test system: testosterone 6β-hydroxylation; assay: testosterone hydroxylation (HPLC) in sea lamprey primary hepatocytes; assay type: cell-based; settings: concentration ranges per compound
Procedure: 100 μL of sample, calibration standard, or quality material standard were pipetted into separate microcentrifuge tubes and mixed with 100 μL of methanol. Samples were vortexed and centrifuged at 13,000 rpm for 4 min. The supernatant was then injected into the HPLC.
The flow rate was 1.2 mL/min and total run time was 25 min.

[2] = HepG2-NTCP cells, luciferase reporter, unit not given, also cells saying No effect
[3] = relative to maximal reference compound (0.5 μM calcitriol, efficacy = 1.0)

## C=C1/C(=C\C=C2/CCC[C@]3(C)[C@@H]([C@H](C)/C=C/[C@H](C)C(C)C)CC[C@@H]23)C[C@@H](O)C[C@@H]1O [1α-Hydroxyvitamin D2]
Human VDR
  EC50: 13 ± 1.2 nM
Mouse VDR
  EC50: 0.8 ± 0.1 nM
Xenopus laevis VDR
  EC50: 624 ± 49 nM
Zebrafish VDR
  EC50: 26 ± 1.7 nM

## C=C1/C(=C\C=C2/CCC[C@]3(C)[C@@H]([C@H](C)CCCC(C)C)CC[C@@H]23)C[C@@H](O)C[C@@H]1O [1α-Hydroxyvitamin D3]
Human VDR
  EC50: 4.3 ± 0.5 nM
Mouse VDR
  EC50: 0.3 ± 0.04 nM
Xenopus laevis VDR
  EC50: 157 ± 10 nM
Zebrafish VDR
  EC50: 18 ± 1.4 nM

## C[C@H](CCC(=O)O)[C@H]1CC[C@H]2[C@@H]3CC[C@@H]4CC(=O)CC[C@]4(C)[C@H]3CC[C@]12C [3-Ketolithocholic acid]
Human VDR
  Human VDR EC50 ± SD: 55 ± 8.1 (0.17)
Mouse VDR
  Mouse VDR EC50 ± SD: 20 ± 0.3 (0.58)
Xenopus laevis VDR
  Xenopus VDR EC50 ± SD: No effect
  Effect on Xenopus laevis VDR: No effect
Zebrafish VDR
  Zebrafish VDR EC50 ± SD: No effect
  Effect on zebrafish VDR: No effect
Sea lamprey VDR; [2]
  Sea lamprey VDR EC50 ± SD: No effect
Sea lamprey VDR
  Effect on sea lamprey VDR: No effect
Ciona VDR/PXR
  Ciona VDR/PXR EC50 ± SD: No effect

## C[C@H](CCCO)[C@H]1CC[C@H]2[C@@H]3[C@H](O)C[C@H]4CC(=O)CC[C@]4(C)[C@H]3C[C@H](O)[C@]12C [3-keto-5α-petromyzonol]
[1]
  effect on testosterone 6β-hydroxylation: None of these compounds produced significant increases in testosterone 6β-hydroxylation

## C[C@]12CC[C@@H](O)C[C@@H]1CC[C@@H]1[C@@H]2CC[C@]2(C)C=CC[C@@H]12 [5α-androst-16-en-3α-ol]
Xenopus laevis VDR
  Effect on Xenopus laevis VDR: No effect
Zebrafish VDR
  Effect on zebrafish VDR: No effect
Sea lamprey VDR
  Effect on sea lamprey VDR: No effect
[1]
  effect on testosterone 6β-hydroxylation: None of these compounds produced significant increases in testosterone 6β-hydroxylation

## O=Cc1c2[nH]c3ccccc3c2cc2[nH]c3ccccc3c12 [6-Formylindolo-[3,2-b]-carbazole]
Human VDR
  Human VDR relative efficacy: ~0.12
Mouse VDR; [3]
  Mouse VDR relative efficacy: ~0.08
Xenopus laevis VDR
  Xenopus VDR relative efficacy: ~0.10
Zebrafish VDR
  Zebrafish VDR relative efficacy: < 0.03
Sea lamprey VDR
  Sea lamprey VDR relative efficacy: 0.25
Ciona VDR/PXR; relative to maximal reference compound (20 μM 6-formylindolo-[3,2-b]-carbazole, efficacy = 1.0)
  Ciona VDR/PXR relative efficacy: 1.0
Ciona VDR/PXR; unpublished data of the authors
  activation of ciVDR/PXR: activated

## C=C1CC[C@H](O)C/C1=C/C=C1\CCC[C@]2(C)[C@@H]([C@H](C)CC[C@@H](O)C(C)(C)O)CC[C@@H]12 [24(R),25-(OH)2-Vitamin D3]
Human VDR; read-out: Human VDR EC50 ± SD, HepG2-NTCP cells, luciferase reporter
  EC50: 300 ± 20 nM
Human VDR
  Human VDR relative efficacy: 0.9
Mouse VDR; read-out: Mouse VDR EC50 ± SD, HepG2-NTCP cells, luciferase reporter
  EC50: 300 ± 20 nM
Mouse VDR; [3]
  Mouse VDR relative efficacy: 1.7
Xenopus laevis VDR
  EC50: 11000 ± 1700 nM
  Xenopus VDR relative efficacy: 0.20
Zebrafish VDR
  EC50: 700 ± 60 nM
  Zebrafish VDR relative efficacy: 0.6
Sea lamprey VDR; HepG2-NTCP cells, luciferase reporter, read-out: Sea lamprey VDR EC50 ± SD
  EC50: 5600 ± 800 nM
Sea lamprey VDR; [3]
  Sea lamprey VDR relative efficacy: 0.9
Ciona VDR/PXR; [2]
  Ciona VDR/PXR EC50 ± SD: No effect

## C[C@H](CCC(=O)NCC(=O)O)[C@H]1CC[C@H]2[C@@H]3CC[C@@H]4C[C@H](O)CC[C@]4(C)[C@H]3CC[C@]12C [Glycolithocholic acid]
Human VDR; [2]
  Human VDR EC50 ± SD: No effect
Mouse VDR
  Mouse VDR relative efficacy: 0.28
Xenopus laevis VDR
  Xenopus VDR EC50 ± SD: No effect
Zebrafish VDR
  Zebrafish VDR EC50 ± SD: No effect
Sea lamprey VDR; [2]
  Sea lamprey VDR EC50 ± SD: No effect
Ciona VDR/PXR; [2]
  Ciona VDR/PXR EC50 ± SD: No effect

## C[C@H](CCC(=O)O)[C@H]1CC[C@H]2[C@@H]3CC[C@@H]4C[C@H](OS(=O)(=O)O)CC[C@]4(C)[C@H]3CC[C@]12C [Lithocholic acid 3-sulfate]
Human VDR; [2]
  Human VDR EC50 ± SD: No effect
Mouse VDR; [2]
  Mouse VDR EC50 ± SD: No effect
Xenopus laevis VDR
  Xenopus VDR EC50 ± SD: No effect
Zebrafish VDR
  Zebrafish VDR EC50 ± SD: No effect
Sea lamprey VDR
  Sea lamprey VDR EC50 ± SD: No effect
Ciona VDR/PXR; [2]
  Ciona VDR/PXR EC50 ± SD: No effect

## CC(=O)[C@H]1CC[C@H]2[C@@H]3CC=C4C[C@@H](O)CC[C@]4(C)[C@H]3CC[C@]12C [Pregnenolone]
Xenopus laevis VDR
  Effect on Xenopus laevis VDR: No effect
Zebrafish VDR
  Effect on zebrafish VDR: No effect
Sea lamprey VDR
  Effect on sea lamprey VDR: No effect
[1]
  effect on testosterone 6β-hydroxylation: None of these compounds produced significant increases in testosterone 6β-hydroxylation

## C[C@H](CCC(=O)NCCS(=O)(=O)O)[C@H]1CC[C@H]2[C@@H]3CC[C@@H]4C[C@H](O)CC[C@]4(C)[C@H]3CC[C@]12C [Taurolithocholic acid]
Human VDR; [2]
  Human VDR EC50 ± SD: No effect
Mouse VDR; [3]
  Mouse VDR relative efficacy: 0.23
Xenopus laevis VDR
  Xenopus VDR EC50 ± SD: No effect
Zebrafish VDR
  Zebrafish VDR EC50 ± SD: No effect
Sea lamprey VDR; [2]
  Sea lamprey VDR EC50 ± SD: No effect
Ciona VDR/PXR; [2]
  Ciona VDR/PXR EC50 ± SD: No effect

## NC(=O)N1c2ccccc2C=Cc2ccccc21 [carbamazepine]
Ciona VDR/PXR
  activation of ciVDR/PXR: activated

## CCCCOC(=O)c1ccc(N)cc1 [n-Butyl 4-aminobenzoate]
Xenopus laevis VDR
  Effect on Xenopus laevis VDR: No effect
Zebrafish VDR
  Effect on zebrafish VDR: No effect
Sea lamprey VDR
  Effect on sea lamprey VDR: No effect
Ciona VDR/PXR
  activation of ciVDR/PXR: activated

## C[C@H](CCC(=O)O)[C@H]1CC[C@H]2[C@@H]3[C@@H](O)[C@H](O)[C@@H]4C[C@H](O)CC[C@]4(C)[C@H]3CC[C@]12C [w-Muricholic acid]
Xenopus laevis VDR
  Effect on Xenopus laevis VDR: No effect
Zebrafish VDR
  Effect on zebrafish VDR: No effect
Sea lamprey VDR
  Effect on sea lamprey VDR: No effect

## AM-580
Xenopus laevis VDR
  Effect on Xenopus laevis VDR: No effect
Zebrafish VDR
  Effect on zebrafish VDR: No effect
Sea lamprey VDR
  Effect on sea lamprey VDR: No effect

## Hyperforin
Xenopus laevis VDR
  Effect on Xenopus laevis VDR: No effect
Zebrafish VDR
  Effect on zebrafish VDR: No effect
Sea lamprey VDR
  Effect on sea lamprey VDR: No effect
